Laboratory results taken from the NIST ThermoML archive (doi:10.1016/j.jct.2018.08.035).
Where “and” joins values, the source holds several entries; their conditions need not be identical. Identical values can stand only once. ± gives the expanded uncertainty stated by the source.

Assay: xn = mol fraction of the nth substance listed
Settings: 100 kPa, Liquid, Vibrating tube method

CCC(O)CC [3-pentanol] + C[N+](=O)[O-]
Settings | mass density
291.86 K, x1 = 0.325 | 974.982 ± 2.1 kg/m3
291.86 K, x1 = 0.363 | 961.613 ± 2.1 kg/m3
291.86 K, x1 = 0.407 | 946.991 ± 2 kg/m3
291.86 K, x1 = 0.488 | 922.68 ± 2 kg/m3
291.86 K, x1 = 0.546 | 907.193 ± 1.9 kg/m3
291.86 K, x1 = 0.587 | 896.735 ± 1.9 kg/m3
291.95 K, x1 = 0.246 | 1005.58 ± 2.2 kg/m3
291.95 K, x1 = 0.275 | 993.548 ± 2.2 kg/m3
291.95 K, x1 = 0.3 | 984.145 ± 2.1 kg/m3
291.95 K, x1 = 0.325 | 974.857 ± 2.1 kg/m3
291.95 K, x1 = 0.338 | 970.048 ± 2.1 kg/m3
291.95 K, x1 = 0.363 | 961.485 ± 2.1 kg/m3
291.95 K, x1 = 0.382 | 954.991 ± 2.1 kg/m3
291.95 K, x1 = 0.407 | 946.861 ± 2 kg/m3
291.95 K, x1 = 0.414 | 944.587 ± 2 kg/m3
291.95 K, x1 = 0.486 | 923.287 ± 2 kg/m3
291.95 K, x1 = 0.488 | 922.559 ± 2 kg/m3
291.95 K, x1 = 0.573 | 900.26 ± 1.9 kg/m3
291.95 K, x1 = 0.587 | 896.628 ± 1.9 kg/m3
291.95 K, x1 = 0.615 | 889.805 ± 1.9 kg/m3
291.96 K, x1 = 0.266 | 997.055 ± 2.2 kg/m3
291.96 K, x1 = 0.546 | 907.079 ± 1.9 kg/m3
292.05 K, x1 = 0.246 | 1005.45 ± 2.2 kg/m3
292.05 K, x1 = 0.275 | 993.426 ± 2.1 kg/m3
292.05 K, x1 = 0.382 | 954.866 ± 2.1 kg/m3
292.05 K, x1 = 0.414 | 944.459 ± 2 kg/m3
292.05 K, x1 = 0.486 | 923.167 ± 2 kg/m3
292.05 K, x1 = 0.573 | 900.153 ± 1.9 kg/m3
292.05 K, x1 = 0.615 | 889.701 ± 1.9 kg/m3
292.06 K, x1 = 0.266 | 996.934 ± 2.2 kg/m3
292.06 K, x1 = 0.3 | 984.022 ± 2.1 kg/m3
292.06 K, x1 = 0.325 | 974.734 ± 2.1 kg/m3
292.06 K, x1 = 0.338 | 969.925 ± 2.1 kg/m3
292.06 K, x1 = 0.363 | 961.36 ± 2.1 kg/m3
292.06 K, x1 = 0.407 | 946.736 ± 2 kg/m3
292.06 K, x1 = 0.488 | 922.439 ± 2 kg/m3
292.06 K, x1 = 0.546 | 906.966 ± 1.9 kg/m3
292.06 K, x1 = 0.587 | 896.519 ± 1.9 kg/m3
292.15 K, x1 = 0.246 | 1005.33 ± 2.2 kg/m3
292.15 K, x1 = 0.325 | 974.609 ± 2.1 kg/m3
292.15 K, x1 = 0.338 | 969.8 ± 2.1 kg/m3
292.15 K, x1 = 0.382 | 954.742 ± 2.1 kg/m3
292.15 K, x1 = 0.414 | 944.336 ± 2 kg/m3
292.15 K, x1 = 0.486 | 923.052 ± 2 kg/m3
292.15 K, x1 = 0.488 | 922.322 ± 2 kg/m3
292.16 K, x1 = 0.266 | 996.81 ± 2.2 kg/m3
292.16 K, x1 = 0.275 | 993.303 ± 2.2 kg/m3
292.16 K, x1 = 0.3 | 983.896 ± 2.1 kg/m3
292.16 K, x1 = 0.363 | 961.234 ± 2.1 kg/m3
292.16 K, x1 = 0.407 | 946.608 ± 2 kg/m3
292.16 K, x1 = 0.546 | 906.853 ± 1.9 kg/m3
292.16 K, x1 = 0.573 | 900.046 ± 1.9 kg/m3
292.16 K, x1 = 0.587 | 896.411 ± 1.9 kg/m3
292.16 K, x1 = 0.615 | 889.595 ± 1.9 kg/m3
292.16 K, x1 = 0.629 | 886.146 ± 1.9 kg/m3
293.15 K, x1 = 0.266 | 995.587 ± 2.2 kg/m3
293.15 K, x1 = 0.338 | 968.578 ± 2.1 kg/m3
293.15 K, x1 = 0.546 | 905.746 ± 1.9 kg/m3
293.16 K, x1 = 0.246 | 1004.11 ± 2.2 kg/m3
293.16 K, x1 = 0.275 | 992.082 ± 2.1 kg/m3
293.16 K, x1 = 0.3 | 982.679 ± 2.1 kg/m3
293.16 K, x1 = 0.325 | 973.389 ± 2.1 kg/m3
293.16 K, x1 = 0.363 | 960.014 ± 2.1 kg/m3
293.16 K, x1 = 0.382 | 953.524 ± 2.1 kg/m3
293.16 K, x1 = 0.407 | 945.397 ± 2 kg/m3
293.16 K, x1 = 0.414 | 943.126 ± 2 kg/m3
293.16 K, x1 = 0.486 | 921.889 ± 2 kg/m3
293.16 K, x1 = 0.488 | 921.165 ± 2 kg/m3
293.16 K, x1 = 0.573 | 898.962 ± 1.9 kg/m3
293.16 K, x1 = 0.587 | 895.341 ± 1.9 kg/m3
293.16 K, x1 = 0.615 | 888.546 ± 1.9 kg/m3
293.16 K, x1 = 0.629 | 885.109 ± 1.9 kg/m3
294.15 K, x1 = 0.246 | 1002.88 ± 2.2 kg/m3
294.15 K, x1 = 0.266 | 994.369 ± 2.2 kg/m3
294.15 K, x1 = 0.275 | 990.864 ± 2.1 kg/m3
294.15 K, x1 = 0.3 | 981.466 ± 2.1 kg/m3
294.15 K, x1 = 0.325 | 972.183 ± 2.1 kg/m3
294.15 K, x1 = 0.338 | 967.375 ± 2.1 kg/m3
294.15 K, x1 = 0.363 | 958.817 ± 2.1 kg/m3
294.15 K, x1 = 0.382 | 952.329 ± 2 kg/m3
294.15 K, x1 = 0.407 | 944.215 ± 2 kg/m3
294.15 K, x1 = 0.414 | 941.945 ± 2 kg/m3
294.15 K, x1 = 0.486 | 920.751 ± 2 kg/m3
294.15 K, x1 = 0.488 | 920.031 ± 2 kg/m3
294.15 K, x1 = 0.546 | 904.649 ± 1.9 kg/m3
294.15 K, x1 = 0.573 | 897.886 ± 1.9 kg/m3
294.15 K, x1 = 0.587 | 894.274 ± 1.9 kg/m3
294.15 K, x1 = 0.615 | 887.502 ± 1.9 kg/m3
294.15 K, x1 = 0.629 | 884.073 ± 1.9 kg/m3
295.15 K, x1 = 0.246 | 1001.66 ± 2.2 kg/m3
295.15 K, x1 = 0.266 | 993.153 ± 2.2 kg/m3
295.15 K, x1 = 0.275 | 989.651 ± 2.1 kg/m3
295.15 K, x1 = 0.3 | 980.26 ± 2.1 kg/m3
295.15 K, x1 = 0.325 | 970.983 ± 2.1 kg/m3
295.15 K, x1 = 0.338 | 966.179 ± 2.1 kg/m3
295.15 K, x1 = 0.363 | 957.627 ± 2.1 kg/m3
295.15 K, x1 = 0.382 | 951.15 ± 2 kg/m3
295.15 K, x1 = 0.407 | 943.045 ± 2 kg/m3
295.15 K, x1 = 0.414 | 940.778 ± 2 kg/m3
295.15 K, x1 = 0.486 | 919.625 ± 2 kg/m3
295.15 K, x1 = 0.488 | 918.905 ± 2 kg/m3
295.15 K, x1 = 0.546 | 903.56 ± 1.9 kg/m3
295.15 K, x1 = 0.587 | 893.213 ± 1.9 kg/m3
295.15 K, x1 = 0.615 | 886.458 ± 1.9 kg/m3
295.15 K, x1 = 0.629 | 883.039 ± 1.9 kg/m3
295.16 K, x1 = 0.573 | 896.815 ± 1.9 kg/m3
296.15 K, x1 = 0.275 | 988.439 ± 2.1 kg/m3
296.15 K, x1 = 0.338 | 964.988 ± 2.1 kg/m3
296.15 K, x1 = 0.382 | 949.976 ± 2 kg/m3
296.15 K, x1 = 0.414 | 939.619 ± 2 kg/m3
296.15 K, x1 = 0.615 | 885.416 ± 1.9 kg/m3
296.16 K, x1 = 0.246 | 1000.44 ± 2.2 kg/m3
296.16 K, x1 = 0.266 | 991.939 ± 2.2 kg/m3
296.16 K, x1 = 0.3 | 979.058 ± 2.1 kg/m3
296.16 K, x1 = 0.325 | 969.786 ± 2.1 kg/m3
296.16 K, x1 = 0.363 | 956.447 ± 2.1 kg/m3
296.16 K, x1 = 0.407 | 941.881 ± 2 kg/m3
296.16 K, x1 = 0.486 | 918.503 ± 2 kg/m3
296.16 K, x1 = 0.488 | 917.785 ± 2 kg/m3
296.16 K, x1 = 0.546 | 902.476 ± 1.9 kg/m3
296.16 K, x1 = 0.573 | 895.746 ± 1.9 kg/m3
296.16 K, x1 = 0.587 | 892.153 ± 1.9 kg/m3
296.16 K, x1 = 0.629 | 882.004 ± 1.9 kg/m3
297.15 K, x1 = 0.246 | 999.224 ± 2.2 kg/m3
297.15 K, x1 = 0.266 | 990.728 ± 2.2 kg/m3
297.15 K, x1 = 0.3 | 977.857 ± 2.1 kg/m3
297.15 K, x1 = 0.325 | 968.596 ± 2.1 kg/m3
297.15 K, x1 = 0.338 | 963.801 ± 2.1 kg/m3
297.15 K, x1 = 0.363 | 955.27 ± 2.1 kg/m3
297.15 K, x1 = 0.382 | 948.809 ± 2 kg/m3
297.15 K, x1 = 0.407 | 940.724 ± 2 kg/m3
297.15 K, x1 = 0.414 | 938.464 ± 2 kg/m3
297.15 K, x1 = 0.486 | 917.385 ± 2 kg/m3
297.15 K, x1 = 0.488 | 916.67 ± 2 kg/m3
297.15 K, x1 = 0.573 | 894.678 ± 1.9 kg/m3
297.15 K, x1 = 0.615 | 884.375 ± 1.9 kg/m3
297.15 K, x1 = 0.629 | 880.972 ± 1.9 kg/m3
297.16 K, x1 = 0.275 | 987.23 ± 2.1 kg/m3
297.16 K, x1 = 0.546 | 901.393 ± 1.9 kg/m3
297.16 K, x1 = 0.587 | 891.096 ± 1.9 kg/m3
298.15 K, x1 = 0.246 | 998.021 ± 2.2 kg/m3
298.15 K, x1 = 0.266 | 989.517 ± 2.2 kg/m3
298.15 K, x1 = 0.275 | 986.032 ± 2.1 kg/m3
298.15 K, x1 = 0.3 | 976.66 ± 2.1 kg/m3
298.15 K, x1 = 0.325 | 967.413 ± 2.1 kg/m3
298.15 K, x1 = 0.338 | 962.62 ± 2.1 kg/m3
298.15 K, x1 = 0.363 | 954.105 ± 2.1 kg/m3
298.15 K, x1 = 0.382 | 947.647 ± 2 kg/m3
298.15 K, x1 = 0.407 | 939.572 ± 2 kg/m3
298.15 K, x1 = 0.414 | 937.32 ± 2 kg/m3 and 937.319 ± 2 kg/m3
298.15 K, x1 = 0.486 | 916.279 ± 2 kg/m3
298.15 K, x1 = 0.488 | 915.564 ± 2 kg/m3
298.15 K, x1 = 0.546 | 900.318 ± 1.9 kg/m3
298.15 K, x1 = 0.573 | 893.615 ± 1.9 kg/m3
298.15 K, x1 = 0.587 | 890.042 ± 1.9 kg/m3
298.15 K, x1 = 0.615 | 883.332 ± 1.9 kg/m3
298.15 K, x1 = 0.629 | 879.94 ± 1.9 kg/m3
